# Molecular target: T1, human GPR119 (Homo sapiens, UniProt Q8TDV5)
# T1 construct: expressed in transfected cells
# T1 sequence (Q8TDV5 1-335): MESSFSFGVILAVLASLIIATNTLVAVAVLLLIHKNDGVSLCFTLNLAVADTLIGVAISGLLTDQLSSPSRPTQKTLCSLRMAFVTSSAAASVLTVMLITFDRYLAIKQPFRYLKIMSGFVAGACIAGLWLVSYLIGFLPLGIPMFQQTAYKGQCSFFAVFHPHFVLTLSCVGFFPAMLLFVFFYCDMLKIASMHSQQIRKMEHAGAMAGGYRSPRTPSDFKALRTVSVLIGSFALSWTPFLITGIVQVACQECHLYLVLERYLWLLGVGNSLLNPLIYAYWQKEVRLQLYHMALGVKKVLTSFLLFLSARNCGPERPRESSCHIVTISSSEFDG
# Test: Intracellular cAMP increase in human GPR119 introduced cells (HitHunter cAMP XS+ Assay)
# Format: cell-based
# Conditions: Table 17; method similar to Example 86; hGPR119 stable cells, intracellular cAMP
# From the text: The GPR119 agonist effect was studied by measuring the effect of an analyte on increase of intracellular amount of cAMP in human GPR119 introduced cells. The testing method is described below.
# (1) Construction of the Stable Cell Line Expressing Human G Protein-Coupled-Receptor 119 (hGPR119) Human GPR119 gene (NM 178471) is purchased from American Type Culture Collection (ATCC No. 10807349). Hind III site-added forward side primer ([…]: sequence No. 1) and Apa I site-added reverse side primer ([…]: sequence No. 2) are designed. The target gene is amplyfied by a polymerase chain reaction (PCR) method using KOD-Plus-Ver. 2 (TOYOBO #KOD-211). PCR is conducted by repeating three steps consisting of the step of 98° C.-10 seconds, the step of 55° C.-30 seconds, and the step of 68° C.-1 minute and 10 seconds in 35 cycles. The amplified PCR product is inserted into pcDNA5/FRT/TO (Invitrogen #V6520-20) plasmid. Cells, which can constantly express the target gene with tetracycline, are constructed using Flp-In T-REx-systen (invitorogen).
# (2) Measurement of Intracellular Cyclic Adenosine Monophosphate (cAMP)
# The hGPR119 introduced cells prepared in (1) are plated on a 96-well plate using Dulbecco's Modified Eagle Medium containing heat-inactived 10% fetal bovine serum. After incubation of 24 hours, tetracyclin (invitrogen #Q10019) is added to the culture medium to induce hGPR119 gene expression. After further incubation of 24 hours, the cells are stimulated with 0.5 mM 3-ISOBUTYL-1-METHYLXANTHINE (Sigma #17018) phosphate buffer containing the analyte at 37° C. for 30 minutes. The amount of the intracellular cAMP is measured by using FLUOstar Optima (BMG LABTECH) according to the protocol of HitHunter™ cAMP XS+Assay (GE Healthcare #90007503) to give the agonist activity of the analyte to the GPR119 receptor.
# (1) Construction of the Stable Cell Line Expressing Human G-Protein Coupled Receptor 119 (hGPR119) hGPR119 gene (NM 178471) was purchased from American Type Culture Collection (ATCC No. 10807349). The forward primer that was added a HindIII site ([…] (sequence number 1)), and the reverse primer that was added an ApaI site ([…] (sequence number 2)) were designed, the target gene was amplified by polymerase chain reaction (PCR) using a KOD-Plus-Ver.2 (TOYOBO #KOD-211). PCR was repeated 3 steps (98° C. for 10 sec, 55° C. for 30 sec, 68° C. for 1 min 15 sec) by 35 cycles. Amplified PCR product was inserted in pcDNA5/FRT/TO (Invitrogen #V6520-20), and the stable cell line that expresses target gene when induced with tetracycline was created using the Flp-In T-Rex system (Invitrogen).
# (2) Measuring Method of Intracellular Cyclic Adenosine Monophosphate (cAMP) hGPR119 stable cells made by above-mentioned (1) were plated on 96 well plates in Dulbecco's Modified Eagle Medium containing 10% heat-inactivated FBS. After 24 hours, the hGPR119 expression was induced by adding medium containing tetracycline (Invitrogen #Q10019) and incubating for another 24 hours. Following incubation, cells were stimulated by 0.5 mM 3-ISOBUTYL-1-METHYLXANTHINE (Sigma #17018) phosphate buffered saline containing test compound for 30 minutes at 37° C. Agonist activity of test compound to the GPR119 receptor was estimated by measuring the intracellular cAMP concentration using a Fluostar optima plate reader (BMG LABTECH) according to the manufacturer's protocol of the HitHunter™ cAMP XS+Assay (GE Healthcare #90007503).
# The examination was performed by the method similar to Example 86 (Pharmacological experiment 1)-(1), -(2).
row,Structure (SMILES),EC50 [nM]
1,"CC(C)(C)OC(=O)N1CCC(c2ccc(COc3ccc(-n4cnnn4)cc3)nc2)CC1 [Example 17, tert-Butyl 4-[2-[4-(tetrazol-1-yl)phenoxymethyl]pyridin-5-yl]piperidine-1-carboxylate]",34
2,"CC(C)(C)OC(=O)N1CCC(c2ccc(COc3ccc(S(C)(=O)=O)c(F)c3)nc2)CC1 [Example 18, tert-Butyl 4-[2-(3-fluoro-4-methanesulfonylphenoxymethyl)pyridin-5-yl]piperidine-1-carboxylate]",85.4
3,"CC(C)(C)OC(=O)N1CCC(c2ccc(COc3ccc(S(N)(=O)=O)cc3)nc2)CC1 [Example 21, tert-Butyl 4-[2-(4-sulfamoylphenoxymethyl)pyridin-5-yl]piperidine-1-carboxylate]",59.3
4,"CC(C)(C)OC(=O)N1CCC(c2ccc(COc3ccc(-n4cnnn4)cc3F)nc2)CC1 [Example 37, tert-Butyl 4-[2-[2-fluoro-4-(tetrazol-1-yl)phenoxymethyl]pyridin-5-yl]piperidine-1-carboxylate]",80.6
5,"CCc1cnc(N2CCC(c3ccc(COc4ccc(-n5cnnn5)cc4)nc3)CC2)nc1 [Example 51, 5-Ethyl-2-[4-[2-[4-(tetrazol-1-yl)phenoxymethyl]pyridin-5-yl]piperidin-1-yl]pyrimidine]",257
6,"CC(C)(C)OC(=O)N1CCC(c2ccc(CCc3ccc(S(C)(=O)=O)cc3)nc2)CC1 [Example 79, tert-Butyl 4-[2-[2-(4-methanesulfonylphenyl)ethyl]pyridin-5-yl]piperidine-1-carboxylate]",142
7,"CC(C)(C)OC(=O)N1CCC(c2ccc(CSc3ccc(S(C)(=O)=O)cc3)nc2)CC1 [Example 84, tert-Butyl 4-[2-(4-methanesulfonylphenylthiomethyl)pyridin-5-yl]piperidine-1-carboxylate]",128

# Next, values leading:
row,EC50 [nM],Structure (SMILES)
1,54.7,"CC(C)(C)OC(=O)N1CCC(c2ccc(COc3ccc(S(C)(=O)=O)cc3F)nc2)CC1 [Example 12, tert-Butyl 4-[2-(2-fluoro-4-methanesulfonylphenoxymethyl)pyridin-5-yl]piperidine-1-carboxylate]"
2,24,"Cc1cc(S(C)(=O)=O)ccc1OCc1ccc(C2CCN(C(=O)OC(C)(C)C)CC2)cn1 [Example 22, tert-Butyl 4-[2-(4-methanesulfonyl-2-methylphenoxymethyl)pyridin-5-yl]piperidine-1-carboxylate]"
3,21.2,"CC(C)(C)OC(=O)N1CCC(c2ccc(COc3ccc(S(C)(=O)=O)cc3Cl)nc2)CC1 [Example 25, tert-Butyl 4-[2-(2-chloro-4-methanesulfonylphenoxymethyl)pyridin-5-yl]piperidine-1-carboxylate]"
4,29.3,"CC(C)(C)OC(=O)N1CCC(c2cnc(COc3ccc(S(C)(=O)=O)cc3)c(Cl)c2)CC1 [Example 71, tert-Butyl 4-[3-chloro-2-(4-methanesulfonylphenoxymethyl)pyridin-5-yl]piperidine-1-carboxylate]"
5,48,"CC(C)(C)OC(=O)N1CCC(c2cnc(COc3ccc(S(C)(=O)=O)cc3)c(C(F)(F)F)c2)CC1 [Example 73, tert-Butyl 4-[2-(4-methanesulfonylphenoxymethyl)-3-trifluoromethylpyridin-5-yl]piperidine-1-carboxylate]"
6,22.4,"CC(C)(C)OC(=O)N1CCC(c2cnc(COc3ccc(S(C)(=O)=O)cc3)c(F)c2)CC1 [Example 75, tert-Butyl 4-[3-fluoro-2-(4-methanesulfonylphenoxymethyl)pyridin-5-yl]piperidine-1-carboxylate]"
7,39.2,"Cc1cc(C2CCN(C(=O)OC(C)(C)C)CC2)cnc1COc1ccc(S(C)(=O)=O)cc1Br [Example 81, tert-Butyl 4-[2-(2-bromo-4-methanesulfonylphenoxymethyl)-3-methylpyridin-5-yl]piperidine-1-carboxylate]"
8,58.8,"Cc1cc(S(C)(=O)=O)ccc1OCc1ncc(C2CCN(C(=O)OC(C)(C)C)CC2)cc1C [Example 82, tert-Butyl 4-[2-(4-methanesulfonyl-2-methylphenoxymethyl)-3-methylpyridin-5-yl]piperidine-1-carboxylate]"
9,21.9,"Cc1cc(C2CCN(C(=O)OC(C)(C)C)CC2)cnc1COc1ccc(-n2cnnn2)cc1F [Example 83, tert-Butyl 4-[2-[2-fluoro-4-(tetrazol-1-yl)phenoxymethyl]-3-methylpyridin-5-yl]piperidine-1-carboxylate]"

# Same assay, conditions: hGPR119 introduced cells, cAMP
row,Structure (SMILES),GPR119 agonist effect (in words)
1,"CC(C)(C)OC(=O)N1CCC(c2ccc(COc3ccc(S(C)(=O)=O)cc3Cl)nc2)CC1 [Example 25, tert-Butyl 4-[2-(2-chloro-4-methanesulfonylphenoxymethyl)pyridin-5-yl]piperidine-1-carboxylate]",excellent GPR119 agonist effect
2,"Cc1cc(C2CCN(C(=O)OC(C)(C)C)CC2)cnc1COc1ccc(-n2cnnn2)cc1F [Example 83, tert-Butyl 4-[2-[2-fluoro-4-(tetrazol-1-yl)phenoxymethyl]-3-methylpyridin-5-yl]piperidine-1-carboxylate]",excellent GPR119 agonist effect

# Test system: not given
# Test: not given
# Conditions: not given
row,Structure (SMILES),melting point [°C]
1,"CCOC(=O)c1ccc(OCc2ccc(C3CCN(C(=O)OC(C)(C)C)CC3)cn2)cc1F [Example 9, tert-Butyl 4-[2-(4-ethoxycarbonyl-3-fluorophenoxymethyl)pyridin-5-yl]piperidine-1-carboxylate]",92 to 95
2,"COc1cc(S(C)(=O)=O)ccc1OCc1ccc(C2CCN(C(=O)OC(C)(C)C)CC2)cn1 [Example 26, tert-Butyl 4-[2-(4-methanesulfonyl-2-methoxyphenoxymethyl)pyridin-5-yl]piperidine-1-carboxylate]",135 to 138
3,"CC(C)(C)OC(=O)N1CCC(c2ccc(COc3cccc([N+](=O)[O-])c3)nc2)CC1 [Example 30, tert-Butyl 4-[2-(3-nitrophenoxymethyl)pyridin-5-yl]piperidine-1-carboxylate]",94 to 96
4,"CC(C)(C)OC(=O)N1CCC(c2ccc(COc3ccc([N+](=O)[O-])cc3)nc2)CC1 [Example 33, tert-Butyl 4-[2-(4-nitrophenoxymethyl)pyridin-5-yl]-piperidine-1-carboxylate]",149 to 150
5,"CC(C)(C)OC(=O)N1CCC(c2ccc(COc3ccc(NS(C)(=O)=O)cc3)nc2)CC1 [Example 35, tert-Butyl 4-[2-(4-methanesulfonylaminophenoxymethyl)pyridin-5-yl]piperidine-1-carboxylate]",171 to 173
6,"CCOC(=O)N1CCC(c2ccc(COc3ccc(S(C)(=O)=O)cc3)nc2)CC1 [Example 43, Ethyl 4-[2-(4-methanesulfonylphenoxymethyl)pyridin-5-yl]piperidine-1-carboxylate]",119 to 121
7,"CC(C)COC(=O)N1CCC(c2ccc(COc3ccc(S(C)(=O)=O)cc3)nc2)CC1 [Example 44, Isobutyl 4-[2-(4-methanesulfonylphenoxymethyl)pyridin-5-yl]piperidine-1-carboxylate]",114 to 117
8,"CC(C)(C)CC(=O)N1CCC(c2ccc(COc3ccc(S(C)(=O)=O)cc3)nc2)CC1 [Example 46, 1-[4-[2-(4-Methanesulfonylphenoxymethyl)pyridin-5-yl]piperidin-1-yl]-3,3-dimethylbutan-1-one]",140 to 142
9,"CCCc1cnc(N2CCC(c3ccc(COc4ccc(S(C)(=O)=O)cc4)nc3)CC2)nc1 [Example 49, 2-[4-[2-(4-Methanesulfonylphenoxymethyl)pyridin-5-yl]piperidin-1-yl]-5-propylpyrimidine]",164 to 166

# From patent US20140018537A1, “GPR119 AGONIST” (NIPPON CHEMIPHAR CO., LTD., priority 2008, published 2014)
